Values after ≈ are worked out from the molar mass of the structure shown.
Assays:
Hepatitis B virus = experiment: Antiviral activity against HBV infected in HepDE19 cells; format: functional, organism-based
[1] = Cytotoxicity against human HepDE19 cells by CellTiter-Glo analysis; format: toxicity, cell-based
[2] = Kinetic solubility in PBS at pH 7.4; format: physicochemical; conditions: read-out: Kinetic_solubility
[3] = Microsomal stability in mouse liver microsomes assessed as intrinsic clearance; format: ADME, Microsome; conditions: read-out: CLH
[4] = Microsomal stability in human liver microsomes assessed as intrinsic clearance; format: ADME, Microsome; conditions: read-out: CLH

Row | EC50 (Hepatitis B virus) [nM] | solubility kinetic [2] [µM] | microsomal CLint [3] [µL/min/mg] | microsomal CLint [4] [µL/min/mg] | Compound | CC50 [1] [nM]
1 | 60 |  |  |  | CCCN(Cc1c[nH]c(=O)c2ccccc12)C(=O)Nc1ccc(F)c(Cl)c1 | > 25000
2 | 80 |  |  |  | CCCCN(Cc1c[nH]c(=O)c2ccccc12)C(=O)Nc1ccc(F)c(Cl)c1 | > 25000
3 | 32 | 82 (≈ 32.1 µg/mL) |  |  | C[C@H](c1c[nH]c(=O)c2ccc(F)cc12)N(C)C(=O)Nc1ccc(F)c(Cl)c1 | > 25000
4 | 91 |  | 238 | 69 | COCCN(C(=O)Nc1ccc(F)c(Cl)c1)C(C)c1c[nH]c(=O)c2ccccc12 (stereo not given) | > 25000
5 | 25 |  | 32 | 62 | CCN(C(=O)Nc1ccc(F)c(Cl)c1)C(C)c1c[nH]c(=O)c2ccccc12 (stereo not given) | > 25000
6 | 810 |  |  |  | O=C(Nc1ccc(F)c(Cl)c1)N(Cc1c[nH]c(=O)c2ccccc12)C1CC1 | > 25000
7 | 290 |  |  |  | C[C@H](c1c[nH]c(=O)c2cc(F)c(F)cc12)N(C)C(=O)Nc1cccc(F)c1F | > 25000
8 | 19 | 97 (≈ 39.8 µg/mL) | 25 | 25 | C[C@H](c1c[nH]c(=O)c2c(F)cc(F)cc12)N(C)C(=O)Nc1ccc(F)c(Cl)c1 | > 25000
9 | 1500 |  |  |  | COc1cccc2c(=O)[nH]cc([C@@H](C)N(C)C(=O)Nc3ccc(F)c(Cl)c3)c12 | > 25000
10 | 22 | 62 (≈ 23.8 µg/mL) | 375 | 28 | C[C@H](c1c[nH]c(=O)c2cc(F)c(F)cc12)N(C)C(=O)[C@@H]1Cc2ccccc2N1 | > 25000
11 | 300 |  |  |  | C[C@H](c1c[nH]c(=O)c2cc(F)c(F)cc12)N(C)C(=O)[C@H]1Cc2ccccc2N1 | > 25000
12 | 55 |  | 172 | 152 | CC(c1c[nH]c(=O)c2ccccc12)N(C(=O)Nc1ccc(F)c(Cl)c1)C1CC1 (stereo not given) | > 25000
13 | 200 |  |  |  | CC(c1c[nH]c(=O)c2cc(Cl)ccc12)N(C)C(=O)Nc1ccc(F)c(Cl)c1 (racemic) | > 25000
14 | 1400 | 42 (≈ 17 µg/mL) |  |  | COc1ccc2c(=O)[nH]cc([C@@H](C)N(C)C(=O)Nc3ccc(F)c(Cl)c3)c2c1 | > 25000
15 | 2000 |  |  |  | COc1ncc(CN(C)C(=O)Nc2ccc(F)c(Cl)c2)c2ccccc12 | 
16 | 20 | 98 (≈ 38.4 µg/mL) | 37 | 28 | C[C@H](c1c[nH]c(=O)c2cc(F)ccc12)N(C)C(=O)Nc1ccc(F)c(Cl)c1 | > 25000
17 | 160 |  |  |  | CCN(Cc1c[nH]c(=O)c2ccccc12)C(=O)Nc1ccc(F)c(Cl)c1 | > 25000
18 | 23 | < 4 | 50 | 26 | C[C@H](c1c[nH]c(=O)c2cc(F)c(F)cc12)N(C)C(=O)c1cc2ccccc2[nH]1 | > 25000
19 | 760 |  |  |  | C[C@H](c1c[nH]c(=O)c2cc(F)c(F)cc12)N(C)C(=O)c1nc2ccccc2[nH]1 | > 25000
20 | 7 |  | > 300 | 260 | CC(C)CN(C(=O)Nc1ccc(F)c(Cl)c1)C(C)c1c[nH]c(=O)c2ccccc12 (stereo not given) | > 25000
21 | 37 | > 200 | 35 | 30 | C[C@H](c1c[nH]c(=O)c2cc(F)c(F)cc12)N(C)C(=O)Nc1cccc(F)c1 | > 25000

Row | EC50 (Hepatitis B virus) [nM] | solubility kinetic [2] [µM] | microsomal CLint [3] [µL/min/mg] | microsomal CLint [4] [µL/min/mg] | Compound | CC50 [1] [nM]
22 | 9000 |  |  |  | COc1ncc(CNC(=O)Nc2ccc(F)c(Cl)c2)c2ccccc12 | 
23 | 12 | 5 (≈ 2.09 µg/mL) | 22 | 14 | C[C@H](c1c[nH]c(=O)c2cc(F)c(F)cc12)N(C)C(=O)c1cc2cc(F)c(F)cc2[nH]1 | > 25000
24 | 32 |  | 182 | 54 | COCCCN(C(=O)Nc1ccc(F)c(Cl)c1)C(C)c1c[nH]c(=O)c2ccccc12 (stereo not given) | > 25000
25 | 9 |  | 190 | 110 | CCCN(C(=O)Nc1ccc(F)c(Cl)c1)[C@H](C)c1c[nH]c(=O)c2ccccc12 | > 25000
26 | 10 |  | 185 | 71 | CC(c1c[nH]c(=O)c2ccccc12)N(CCCO)C(=O)Nc1ccc(F)c(Cl)c1 (stereo not given) | > 25000
27 | 13 | 179 (≈ 70.4 µg/mL) | 37 | 25 | C[C@H](c1c[nH]c(=O)c2cc(F)c(F)cc12)N(C)C(=O)Nc1ccc(F)c(F)c1 | > 25000
28 | 7 | 95 (≈ 37 µg/mL) | 60 | 42 | Cc1cc(NC(=O)N(C)[C@H](C)c2c[nH]c(=O)c3cc(F)c(F)cc23)ccc1F | > 25000
29 | 470 |  |  |  | COCCN(Cc1c[nH]c(=O)c2ccccc12)C(=O)Nc1ccc(F)c(Cl)c1 | > 25000
30 | 6 |  | 243 | 143 | CCCCN(C(=O)Nc1ccc(F)c(Cl)c1)C(C)c1c[nH]c(=O)c2ccccc12 (stereo not given) | > 25000
31 | 470 |  |  |  | CN(Cc1c[nH]c(=O)c2ccccc12)C(=O)Nc1ccc(F)c(Cl)c1 | > 25000
32 | 180 | < 4 |  |  | COc1ccc2c([C@@H](C)N(C)C(=O)Nc3ccc(F)c(Cl)c3)c[nH]c(=O)c2c1 | > 25000
33 | 6800 |  |  |  | O=C(NCc1c[nH]c(=O)c2ccccc12)Nc1ccc(F)c(Cl)c1 | > 25000
34 | 120 | 18 (≈ 7.35 µg/mL) |  |  | C[C@H](c1c[nH]c(=O)c2ccc(Cl)cc12)N(C)C(=O)Nc1ccc(F)c(Cl)c1 | > 25000
35 | 18 | 72 (≈ 28.2 µg/mL) | 30 | 32 | C[C@H](c1c[nH]c(=O)c2cc(F)c(F)cc12)N(C)C(=O)Nc1cccc(Cl)c1 | > 25000
36 | 7 | 42 (≈ 17.2 µg/mL) | 23 | 32 | C[C@H](c1c[nH]c(=O)c2cc(F)c(F)cc12)N(C)C(=O)Nc1ccc(F)c(Cl)c1 | > 25000
37 | 22 | 12 (≈ 4.79 µg/mL) | 33 | 13 | C[C@H](c1c[nH]c(=O)c2cc(F)c(F)cc12)N(C)C(=O)c1cc2ccc(F)cc2[nH]1 | > 25000
38 | 40 | 146 (≈ 57.2 µg/mL) |  |  | C[C@H](c1c[nH]c(=O)c2c(F)cccc12)N(C)C(=O)Nc1ccc(F)c(Cl)c1 | > 25000
39 | 15 | 92 (≈ 37.7 µg/mL) | 32 | 28 | C[C@H](c1c[nH]c(=O)c2c(F)c(F)ccc12)N(C)C(=O)Nc1ccc(F)c(Cl)c1 | > 25000
40 | 110 |  |  |  | C[C@H](c1c[nH]c(=O)c2cc(F)c(F)cc12)N(C)C(=O)Nc1ccccc1 | > 25000
41 | 130 |  |  |  | COCCCN(Cc1c[nH]c(=O)c2ccccc12)C(=O)Nc1ccc(F)c(Cl)c1 | > 25000
42 | 85 | < 4 |  |  | C[C@H](c1c[nH]c(=O)c2c(Cl)cccc12)N(C)C(=O)Nc1ccc(F)c(Cl)c1 | > 25000

— ChEMBL document CHEMBL5579892, “Rational Design, Synthesis, and Structure-Activity Relationship of a Novel Isoquinolinone-Based Series of HBV Capsid Assembly Modulators Leading to the Identification of Clinical Candidate AB-836” (J Med Chem, 2024)
